Laboratory results from patent publication US20070275100A1, “Use of gaseous nitric oxide as an anti-cancer agent” (priority 1998, published 2007).

What was measured:
[1] = tested on: normal human bronchial epithelial cells (NHBE); test: Viability under 25,000 ppm gNO (Example 5), NHBE; assay type: cell-based; conditions: after 6 minutes, FIG. 8 A
Procedure: (§1) After 24 hours, the A549, NCI-H23, NCI-H460, HTB-58, H2170 and H441 cells were treated with 25,000 ppm gNO or air (control) for 1 minute, 3 minutes, 6 minutes, 9 minutes, 10 minutes, 20 minutes, and 30 minutes. Immediately following treatment, the viability of the cells was determined using a colorimetric MTS (3-(4,5-dimethylthiazol-2-yl)-5-(3-carboxymethoxyphenyl)-2-(4-sulfophenyl)-2H-tetrazolium, inner salt) cell proliferation assay (commercially available as the CellTiter 960 Aqueous One Solution Cell Proliferation Assay (MTS) from Promega, Madison, Wis., USA) according to the manufacturer's protocol. Briefly, 20 mL of MTS solution was added to each well and the cells were incubated for 2 hours at 37° C. Absorbance was measured at 490 nm for each well using a micro-plate reader (commercially available from Dynex Technologies, Chantilly, Va., USA). The relative percentage of cell survival (viability) was calculated by dividing the absorbance of treated cells by that of control cells for each experimental time point.
The purpose of this example is to illustrate the effects on normal human cell lines compared to the effects on cancerous cell lines of high-dosage gNO. The above study was repeated. […]

[2] = tested on: Staphylococcus aureus; test: High dose gNO on Staphylococcus aureus plated on blood agar (Example 2); assay type: cell-based; conditions: 25,000 ppm gNO
Source text: The purpose of this example is to observe the possibility of a novel bactericidal high dose (25,000 ppm) effect of gaseous nitric oxide (gNO) on an ATCC strain of Staphylococcus aureus plated on a blood agar media and determine a time effect of this dosage.
A closed environment treatment chamber was used (see, “A direct nitric oxide gas delivery system for bacterial and mammalian cell cultures,” A. Ghaffari, D. H. Neil, A. Ardakani, J. Road, A. Ghahary, C. C. Miller. Nitric Oxide 12(3):129-140, 2005, herein incorporated by reference in its entirety). The following steps were performed: • 1. Calibrated the AeroNOx analyzer as per standard procedure. • 2. Calibrated the closed environment treatment chamber as per standard procedure. • 3. In a 50 mL tube, known Staphylococcus aureus bacteria in 10 mL Nutrient Broth was grown overnight or for about 12 hours in a shaker incubator. • 4. Measured optical density of grown Staphylococcus aureus using a spectrophotometer set at 600 nm. Used original nutrient broth as a blank. O.D. should be 1.0±10%. • 5. Turned on closed environment treatment chamber. • 6. Labeled three plates: Air, NO+1 minute, NO+3 minutes. • 7. Immersed a sterile cotton swab into the bacterial mixture in the 50 mL tube and shaked off excess liquid. • 8. Swiped one plate entirely in two directions with the swab. • 9. Repeated steps 7-8 using the cotton swab for the remaining […] plates. • 10. Using clean technique, utilized the device to administer either air or 25,000 ppm gNO at a fixed distance and flow towards the inoculated agar media. The agar plate was enclosed in an isolated plastic box with lid. A micropipette through which the gas flowed was affixed to the box lid. The box lid was sealed through the use of plastic wrap. The micropipette was in fluid communication with the gaseous mixing manifold in order to deliver the specified concentrations. • 11. Placed the three treated plates into the laboratory incubator. • 12. Removed plates after 8 hours and placed in a 37° C. incubator for 12-16 hours. • 13. After incubation, recorded results with digital pictures. • 14. Sealed plates with paraffin and refrigerated for storage.

[3] = tested on: H441; test: MTS cell proliferation assay, 25,000 ppm gNO (Example 4), H441; assay type: cell-based, human
Source text: The purpose of this example is to illustrate the tumorcidal activity of high-dosage gNO. We examined the cellular sensitivity to 25,000 ppm of gNO on 5 non-small cell lung cancer (NSCLC) cells lines by an MTS cell proliferation assay.
Human lung cancer cell lines A549, NCI-H23, NCI-H460, HTB-58, H2170, and H441 (commercially available from American Type Culture Collection (“ATCC”), Manassas, Va.) were maintained in culture medium recommended by ATCC. All media were supplemented with 1% penicillin/streptomycin and 10% fetal bovine serum (commercially available from Invitrogen Gibco-BRL, Burlington, Ontario, Canada). […]
as §1, with “Briefly, 20 mL of MTS solution was added to each well and the cells were incubated for 2 hours at 37° C.” left out, “The relative percentage of cell survival (viability) was calculated by dividing the absorbance of treated cells by that of control cells for each experimental time point.” left out

[N]=O [gNO, nitric oxide]
viability [1]: less than 10% | effect on the growth of S. aureus ([2]; 1 minute): profound inhibitory effect | plate appearance after incubation (FIG. 4) ([2]; 1 minute of exposure): the plate still shows signs of the S. aureus | effect on the growth of S. aureus ([2]; 3 minutes): possible cidal effect | plate appearance after incubation (FIG. 5) ([2]; 3 minutes of exposure): the plate shows no signs of the S. aureus | IC50 (exposure time) [3]: about 7 minutes | viability at 25000 ppm ([3]; Homo sapiens, NCI-H441, 0.15 h, at 9 minutes): ~17%
